# Data as given in patent publication US20150343016A1, “CHEMICAL ENTITIES AND THERAPEUTIC USES THEREOF” (The Regents of the University of Colorado, a body corporate, priority 2010, published 2015).
# Entries after “also recorded” stand apart in the source; their conditions may differ.
# Experiments:
# [1] = tested on: 17 cell lines including Head and Neck Squamous Cell Carcinoma and non-small cell lung cancer lines; test: MTT assays, Bouvardin with radiation, panel of 17 cell lines; assay type: cell-based, human
# Description: The observation that Bouvardin enhanced the effect of radiation on Drosophila larvae led us to question whether this effect would translate to a mammalian system. In order to determine what cell lines should be used to create tumor xenografts in mice, MTT assays for cell viability were used first to test the effects of Bouvardin alone and in combination with radiation in human cancer cells. MTT assays measure cell viability by measuring mitochondrial enzyme function. We used 17 cell lines including Head and Neck Squamous Cell Carcinoma and non-small cell lung cancer lines.
# The data for non-small cell lung cancer cell line (H157) is depicted in FIG. 16.
# The growth inhibitory effects of Bouvardin with ionizing radiation (IR) were evaluated using a modified tetrazolium salt (MTT) assay. In the MTT assay, 1,000 to 2,000 viable cells were plated in 100 uL of growth medium in 96-well plates (Corning, Ithaca, N.Y.). Following an overnight incubation, drug was added in varying concentrations and the plates were irradiated on the same day (co-treatment) or 24 hr later (pre-treatment) and incubated for 6 to 7 days. The tetrazolium salt was added at a concentration of 0.4 mg/mL to each well following the 6- to 7-day treatment. The plates were incubated with the salt for 4 hours at 37° C. […] The absorbency of each well was measured using an automated plate reader (Molecular Devices, Sunnyvale, Calif.). […]
# H157 tumor xenografts = H157 tumor xenografts in athymic mice, Bouvardin with radiation; assay type: in vivo
# Description: The effectiveness of Bouvardin, IR and the combination of the two was next assessed in H157 tumor xenografts (FIG. 17B). […] Similar results were obtained in a repeat experiment (not shown). […] Bouvardin enhances the effect of radiation in Drosophila mutant larvae, human cancer cells and tumor xenografts in mice. The choice of drug concentration would be critical.
# In FIG. 17 (A) Clonogenic assays were used to confirm the effects of Bouvardin in combination with radiation in H157 cells. Cells were plated in 6 well plates at 1,000 cells per well. 24 hours later, various doses of (1 nM, 5 nM and 10 nM) of Bouvardin were added with media alone as a control. 24 hours after the addition of Bouvardin, the cells were irradiated at 0, 2, 4 and 6 Gy. Colonies were allowed to form for 2 weeks and then counted. The results are shown as a percentage of control (no drug, no IR). Error bar=±1SEM. (B) The effect of Bouvardin (Bvd) and radiation on H157 xenografts in athymic mice. Bouvardin treatment began when tumors had reached approximately 200 mm3. Bouvardin was administered intraperitonealy twice a week, and radiation was administered 24 hr after each drug administration Animals in control and drug-only groups had tumors that were too large and had to be sacrificed on day 26. Treatment continued for the other two groups for one more week. The difference in tumor volume between combination-treated group and radiation only group was statistically significant at day 30 (p=0.0387 on day 30; upaired two tailed t-test). The difference in tumor volume between combination-treated group and radiation only group remains on day 33 but is less significant (p=0.0967; upaired two tailed t-test). N=10 per group. The data points indicate mean tumor volumes ±1SEM.
# Six to 8-week-old female nude athymic mice were purchased from Harlan Laboratories and housed in a pathogen-free facility approved by the American Association for the Accrediation of Laboratory Animal Care and met all current regulations and standards of the U.S. Department of Agriculture, the U.S. Department of Health and Human Services and the National Institutes of Health Animal procedures were carried out in accordance with a protocol approved by the Institutional Animal Care and Use Committee of the University of Colorado. Cancer cells were grown to 80% confluence and harvested by trypsinization. Trypsin was neutralized with complete medium containing FBS. […] Mice were treated for 3 weeks, and tumor growth was measured until volume exceeded 2 cm3, when animals were euthanized. Tumor volume was measured on Tuesdays and Fridays. Tumor volume was calculated using the formula V=a2×b/2, where a and b are the smallest and largest tumor diameters, respectively, as determined using calipers.
smiles,measurement,setting,value
"COc1ccc(C[C@H]2C(=O)N[C@H](C)C(=O)N(C)[C@@H]3C(=O)N(C)[C@@H](Cc4ccc(O)c(c4)Oc4ccc(cc4)[C@H]3O)C(=O)N[C@@H](C)C(=O)N[C@H](C)C(=O)N2C)cc1 (stereo in doubt) [Bouvardin, bouvardin]",interaction of Bouvardin with radiation across the panel,[1],"synergize in most, but not all of these cell lines"
same,"tumor control, drug with radiation versus radiation alone","H157 tumor xenografts; 0.2 mg/kg + radiation 24 hr after each drug administration, p=0.0387 on day 30, p=0.0967 on day 33",improved control of tumor volume in a statistically significant manner; also recorded: enhanced the effect of IR
same,"tumor control, drug alone",H157 tumor xenografts; 0.2 mg/kg intraperitonealy twice a week,had little effect on its own
same,"tumor control, drug alone",H157 tumor xenografts; 0.4 mg/kg,shows tumor control; also recorded: had effect on its own
same,"tumor control, drug with radiation versus radiation alone",H157 tumor xenografts; 0.4 mg/kg + radiation,did not enhance the effect of radiation; also recorded: did not enhance the effect of IR
